{"source": "patent US20240173353A1", "about": "“UNIVERSAL CHIMERIC ANTIGEN RECEPTOR T-CELL AND APPLICATION THEREOF” (SHANGHAI IASO BIOTECHNOLOGY CO., LTD., priority 2021, published 2024)", "key": {"[1]": {"system": "anti-CD19-CAR-T cells", "test": "CD107a translocation of anti-CD19-CAR-T cells co-incubated with target cells", "type": "cell-based, human", "details": "LCK-sgRNA16 editing group (43% T316I), 100 nM dasatinib 12 hr, Nalm6 target cells", "excerpt": "First, the inventors edited the prepared anti-CD19 CAR-T by electroporation with the CBE3 protein, the RNP complex of CBE3 and LCK-sgRNA12, and the RNP complex of CBE3 and LCK-sgRNA16 respectively, to achieve three different editing treatments."}, "[2]": {"system": "NK cells", "test": "CD107a release of NK cells activated by K562", "type": "cell-based, human", "method": "The inventor used Miltenyi human NK sorting magnetic beads to separate NK cells from human peripheral blood, and used DAKEWE NK medium to culture and expand them in vitro. On Day 8, a population of NK cells with more than 95% having positive CD56 expression could be obtained. These NK cells were taken out and treated with 0 nM, 100 nM and 200 nM dasatinib respectively for 24 hr, and then divided into two groups, one of which was not activated, and the other group was stimulated with MHC-class I molecule-deficient K562 cells for 5 hr. Then, the CD107a release of NK cells were detected in both of them.\nThe inventors isolated NK cells from human PBMCs, and then cultured and differentiated them in NK medium to obtain CD56-positive NK cells with a purity higher than 95%. The exploration of the threshold of NK activation with dasatinib was carried out with seven concentrations in the range of 0-50 nM, namely 0, 10, 20, 25, 30, 40 and 50 nM, and the treatment was carried out overnight. The next day, the cells were resuspended with NK medium and activated with K562. Lymphocyte activator was used as a positive control for activation, and a part of NK cells that were not activated by K562 were also kept. Two replicates were set for each group. anti-CD107a antibody and monensin were added while carrying out activation, and after co-incubation for 6 hr, the CD107a release of CD56-positive NK cells was detected by flow cytometry.\nThe inventors isolated NK cells from human PBMCs, and then cultured and differentiated them in NK medium to obtain CD56-positive NK cells with a purity higher than 95%. Three pretreatments were done respectively (1) absence of dasatinib pretreatment; (2) pretreatment with […] pretreatment with 50 nM dasatinib, and the cells were cultured overnight. The next day, the concentration of dasatinib was reduced, and the concentration was adjusted to 0, 7.5, 12.5, 17.5 and 25 nM respectively. […] Two replicates were set for each group.\nIn order to repeatedly verify that the inhibition of NK cell activation function by dasatinib has an extended effect, the inventors repeated the above experiment. […] After 4 hr of co-incubation, CD107a release from CD56 positive NK cells was detected.\nThe inventors used CD3-negative cells in human PBMCs, which contained more than 5% of CD56-positive NK cells. […] The next day, the cells were resuspended with NK medium and activated with K562. Lymphocyte activator was used as a positive control for activation, and a part of NK cells that were not activated by K562 were also kept. Two replicates were set for each group. anti-CD107a antibody and monensin were added while carrying out activation, and after co-incubation for 6 hr, the CD107a release of CD56-positive NK cells was detected by flow cytometry.\nThe inventors isolated NK cells from human PBMCs, and then cultured and differentiated them in NK medium to obtain CD56-positive NK cells with a purity higher than 95%. […] Two replicates were set for each group."}, "[3]": {"details": "cited from earlier work"}}, "data": [{"smiles": "Cc1nc(Nc2ncc(C(=O)Nc3c(C)cccc3Cl)s2)cc(N2CCN(CCO)CC2)n1", "note": "[dasatinib]", "values": [{"measurement": "positive CD107a translocation in CD8 and CAR double-positive cells", "setting": "[1]", "result": 50, "unit": "%"}, {"measurement": "concentration that effectively inhibits NK cell activation in vitro (minimum)", "setting": "[2]; 0-50 nM overnight, K562 6 hr", "result": 30, "unit": "nM"}, {"measurement": "concentration enough to inhibit CD107a translocation and activation of NK cells", "setting": "[2]; 24 hr treatment, K562 5 hr", "result": 100, "unit": "nM"}, {"measurement": "cells still activated", "setting": "[2]; NK cells without pretreatment, 7.5 nM dasatinib 4 hr, K562", "result": "about 4.4%"}, {"measurement": "release of CD107a", "setting": "[2]; NK cells, 25 nM and 50 nM pretreatment, changed to 12.5, 17.5 and 25 nM, K562", "result": "lower than 1%"}, {"measurement": "release of CD107a", "setting": "[2]; NK cells, 25 nM and 50 nM pretreatment, reduced to 7.5 nM, K562", "result": "lower than 1%"}, {"measurement": "CD107a translocation", "setting": "[2]; NK cells, 100 nM and 200 nM dasatinib 24 hr, K562 5 hr", "result": 2, "unit": "%"}, {"measurement": "release of CD107a", "setting": "[2]; NK cells, pretreatment with three dasatinib concentrations (0, 25, 50 nM), reduced to 0 nM, K562", "result": "above 58%"}, {"measurement": "positive CD107a release", "setting": "[2]; NK cells, repeat, 50 nM pretreatment, reduced to 0 nM, K562 4 hr", "result": 39.7, "unit": "%"}, {"measurement": "basal CD107a translocation", "setting": "[2]; non-activated NK cells, 100 nM and 200 nM dasatinib 24 hr", "result": 2, "unit": "%"}, {"measurement": "half-life in vivo", "setting": "[3]", "result": "3 to 4", "unit": "h"}]}]}
